Assay results taken from article PMC12812255 (ACS infectious diseases, 2025).
In brackets after ≈: the same amount, converted by molar mass. Like-named read-outs stand apart in the source and are kept apart here.

Legend:
[1] = target: T1, MtbADSL (Mycobacterium tuberculosis, UniProt I6XWA1); test: PPDK-luciferase coupling Mtb ADSL enzyme assay; format: biochemical
[2] = target: T1, MtbADSL; test: Fluorescence polarization; format: biochemical
[3] = target: coupling enzymes, PPDK and luciferase; test: ADSL-free PPDK-luciferase coupling enzyme assay; format: biochemical, Clostridium symbiosum (PPDK); firefly (luciferase); conditions: read-out: IC50 ADSL-free; no ADSL, AMP 10 μM as substrate
[4] = target: T1, MtbADSL; test: AMP-Glo Mtb ADSL assay; format: biochemical
[5] = target: T2, human ADSL (huADSL) (Homo sapiens, UniProt P30566); test: Human ADSL PPDK-AMP assay; format: biochemical; conditions: for SI, selectivity index, IC50-human/IC50-Mtb: PPDK-coupling assay
T2 sequence (P30566 1-484): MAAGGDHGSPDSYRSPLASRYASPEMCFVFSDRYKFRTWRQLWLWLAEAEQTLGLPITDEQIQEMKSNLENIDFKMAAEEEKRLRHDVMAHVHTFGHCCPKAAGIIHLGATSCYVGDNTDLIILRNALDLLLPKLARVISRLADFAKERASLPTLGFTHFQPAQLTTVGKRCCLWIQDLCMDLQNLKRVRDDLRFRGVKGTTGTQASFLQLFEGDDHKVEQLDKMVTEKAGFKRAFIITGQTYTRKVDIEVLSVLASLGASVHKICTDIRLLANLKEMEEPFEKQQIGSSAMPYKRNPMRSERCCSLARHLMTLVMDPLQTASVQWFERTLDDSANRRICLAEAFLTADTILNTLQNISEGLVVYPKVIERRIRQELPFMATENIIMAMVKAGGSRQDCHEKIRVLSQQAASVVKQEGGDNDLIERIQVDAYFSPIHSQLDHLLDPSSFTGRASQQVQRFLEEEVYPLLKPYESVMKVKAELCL

[6] = system: M. tuberculosis H37Ra; test: Antibacterial susceptibility, broth dilution, AlamarBlue; format: cell-based; conditions: Mycobacterium tuberculosis, read-out: MIC H37Ra
[7] = system: M. tuberculosis H37Rv; test: Antibacterial susceptibility, OD600, MIC estimated as EC90; format: cell-based; conditions: Mycobacterium tuberculosis, read-out: MIC H37Rv (estimated by EC90)
[8] = target: T1, MtbADSL; test: Protein thermal shift assay; format: binding; conditions: compound together with 4-HNE, 10 μM
[9] = target: T1, MtbADSL; test: Gel-based thermal shift assay; format: binding; conditions: 15 or 30 μM compound, MtbADSL 5 μM
[10] = in vitro; conditions: human
[11] = in vitro; conditions: human, CC50 CCF-STTG1
[12] = system: intracellular Mtb H37Ra in RAW264.7 macrophages; test: Phagocytosis assay, intracellular bacterial load in RAW264.7 macrophages
[13] = system: Mtb H37Ra; test: AMP rescue assay; format: cell-based, Mycobacterium tuberculosis; conditions: compound at MIC, AMP 0-5 mM, 7 days
[14] = system: Mycobacterium abscessus; conditions: cited from earlier work
[15] = Cytotoxicity CCK-8; conditions: human
[16] = system: A549 cells; test: Cytotoxicity CCK-8; conditions: at the MIC determined for H37Rv
[17] = Cytotoxicity CCK-8; conditions: human, HEK293 cells
[18] = Cytotoxicity CCK-8; conditions: human, CCF-STTG1 cells, CC50 CCF-STTG1, 48 h

| SMILES | IC50 [1] [nM] | IC50 [2] [µM] | IC50 [3] [µM] | IC50 [4] [nM] | IC50 [5] [µM] | MIC ([6]; 168 h) [µg/mL] | MIC [6] [µM] | MIC [7] [µM] | Protection of MtbADSL from heat-induced denaturation and aggregation [9] | Reduction of intracellular Mtb growth ([12]; 5 μM) | Reduction of intracellular Mtb growth ([12]; 15 μM) | also measured |
| --- | --- | --- | --- | --- | --- | --- | --- | --- | --- | --- | --- | --- |
| CCCCCC(O)/C=C/C=O (stereo not shown) [4-HNE, 4-hydroxynonenal] |  |  |  |  |  |  |  |  |  |  |  | IC50 ([1]; read-out: IC50-Mtb PPDK, PPDK-luciferase coupling assay, SAMP 20 μM): 2600 nM |
| O=C(O)Cc1cc(I)c(Oc2cc(I)c(O)c(I)c2)c(I)c1 [Tetrac, tetraiodothyroacetic acid] | 4800 | 13 | 24.5 | 1600 | 22.4 | 6.2 | 8.3 | 30 (≈ 22.4 µg/mL) | dose-dependent protection | ~ 1 log | ~ 2.5 log | SI, selectivity index, IC50-human/IC50-Mtb ([5]; listed as TT): 4.7; Reduction of Tm on co-incubation with 4-HNE [8]: ~ 0.6 °C; viability at 48 h [10]: ~71%; CC50 at 48 h [11]: > 200 µM |
| Oc1c(Cl)cc(Cl)cc1Sc1cc(Cl)cc(Cl)c1O [bithionol] | 1600 | 6.2 | 21.6 | 1200 | 14.7 | 3.1 | 8.7 | 28 (≈ 9.97 µg/mL) | dose-dependent protection | ~ 2.3 log | 4.6 log | SI, selectivity index, IC50-human/IC50-Mtb [5]: 9.2; AMP concentration at which growth is rescued [13]: 5.0 mM; MIC against Mycobacterium abscessus [14]: 0.625 to 2.5 µM; CC50 at 48 h [15]: 32.4 µM; Reduction of A549 cell viability [16]: ~ 45%; CC50 at 48 h [17]: 19.3 µM; CC50 at 48 h [18]: ~139 µM |
